The text below walks through data of publication PMC12809495, “Potential 14-3-3 binding sites in sirtuins reveal extended phosphosite-recognition modes” (Acta Crystallographica Section F: Structural Biology …, 2026).

Assay [1] addresses T1, 14-3-3 isoform theta (Homo sapiens, UniProt P27348).
T1 construct: His6; made in house; host or cells: Escherichia coli BL21 Rosetta (DE3)
T1 sequence (P27348 1-245): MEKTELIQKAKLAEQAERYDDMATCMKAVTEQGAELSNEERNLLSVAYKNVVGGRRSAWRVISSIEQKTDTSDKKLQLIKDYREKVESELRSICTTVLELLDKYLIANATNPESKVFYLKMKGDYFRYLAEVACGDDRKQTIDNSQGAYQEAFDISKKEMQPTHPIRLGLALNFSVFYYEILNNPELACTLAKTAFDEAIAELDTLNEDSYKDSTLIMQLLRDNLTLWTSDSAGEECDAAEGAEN
In words: Label-free microscale thermophoresis (MST) binding, 14-3-3 theta. Conditions: label-free MST, 0.6 µM 14-3-3 protein, 25 mM MES pH 6.5, 5 mM MgCl2, 5 mM CaCl2, 25°C; Kd from duplicate measurements; read-out: Affinity estimates by MicroScale Thermophoresis, 14-3-3 isoform theta (Kd). As for the experimental part:
(§1) The binding of phosphorylated sirtuin peptides (Fig. 1 ▸) was analyzed using the change in the intrinsic fluorescence signal of the 14-3-3 proteins measured with label-free microscale thermophoresis using a Nanotemper Monolith NT.LabelFree or NT.115. A typical binding experiment using 0.6 µM 14-3-3 protein was performed in a modified MST buffer consisting of 25 mM MES pH 6.5, 5 mM MgCl2, 5 mM CaCl2. The measurements were performed at 25°C using a LED power of 10–40%. All measurements were performed at least in duplicate, and the results shown are representative measurements individually fitted using GraFit 7 (Erathicus Software, Horley, United Kingdom).
(§2) Figure 1 Classification and analysis of sirtuin PSSM results for potential 14-3-3 phosphoserine binding sites. Peptides with a gray background were not analyzed experimentally. Score is the overall PSSM score for the phosphorylation site; rank is the order within the 17 proposed sirtuin binding sites. Conserved residues in the 14-3-3 motifs are marked in green. Residues with restricted (proline) or very flexible (glycine) protein backbone or with a very large side chain (tryptophan) are marked in red. Amino acids with the same or similar hydrophobicity/size are shown in magenta. Kd values from duplicate measurements are colored green for Kd < 100 µM. Fields marked in red indicate no binding or no successful experiment. TEXT PRINTED IN THE PICTURE: Sirt1 S26: Affinity estimates by MicroScale Thermophoresis [μM], 14-3-3 isoform sigma: none | Sirt1 S670: Affinity estimates by MicroScale Thermophoresis [μM], 14-3-3 isoform gamma: aggr.; Affinity estimates by MicroScale Thermophoresis [μM], 14-3-3 isoform epsilon: > 183; Affinity estimates by MicroScale Thermophoresis [μM], 14-3-3 isoform theta: 93; Affinity estimates by MicroScale Thermophoresis [μM], 14-3-3 isoform sigma: 5 | Sirt3 S103: Affinity estimates by MicroScale Thermophoresis [μM], 14-3-3 isoform gamma: aggr.; Affinity estimates by MicroScale Thermophoresis [μM], 14-3-3 isoform epsilon: > 267; Affinity estimates by MicroScale Thermophoresis [μM], 14-3-3 isoform theta: 52; Affinity estimates by MicroScale Thermophoresis [μM], 14-3-3 isoform sigma: 10 | Sirt3 S103wt: Affinity estimates by MicroScale Thermophoresis [μM], 14-3-3 isoform gamma: aggr.; Affinity estimates by MicroScale Thermophoresis [μM], 14-3-3 isoform theta: none; Affinity estimates by MicroScale Thermophoresis [μM], 14-3-3 isoform sigma: none | Sirt3 S105: Affinity estimates by MicroScale Thermophoresis [μM], 14-3-3 isoform gamma: aggr.; Affinity estimates by MicroScale Thermophoresis [μM], 14-3-3 isoform epsilon: > 215; Affinity estimates by MicroScale Thermophoresis [μM], 14-3-3 isoform theta: 60; Affinity estimates by MicroScale Thermophoresis [μM], 14-3-3 isoform sigma: none | Sirt5 S168: Affinity estimates by MicroScale Thermophoresis [μM], 14-3-3 isoform epsilon: aggr.; Affinity estimates by MicroScale Thermophoresis [μM], 14-3-3 isoform theta: aggr.; Affinity estimates by MicroScale Thermophoresis [μM], 14-3-3 isoform sigma: > 329 | Sirt6 T337: Affinity estimates by MicroScale Thermophoresis [μM], 14-3-3 isoform epsilon: > 420; Affinity estimates by MicroScale Thermophoresis [μM], 14-3-3 isoform sigma: 12 | Sirt6 S338: Affinity estimates by MicroScale Thermophoresis [μM], 14-3-3 isoform epsilon: 19; Affinity estimates by MicroScale Thermophoresis [μM], 14-3-3 isoform sigma: 24 | Sirt7 S136: Affinity estimates by MicroScale Thermophoresis [μM], 14-3-3 isoform epsilon: none; Affinity estimates by MicroScale Thermophoresis [μM], 14-3-3 isoform theta: 30; Affinity estimates by MicroScale Thermophoresis [μM], 14-3-3 isoform sigma: 49

Assay [2] deals with T2, 14-3-3σ-ΔC (Homo sapiens, UniProt P31947).
T2 construct: His6; made in house; host or cells: Escherichia coli BL21 Rosetta (DE3)
T2 sequence (P31947 1-231 limits assumed): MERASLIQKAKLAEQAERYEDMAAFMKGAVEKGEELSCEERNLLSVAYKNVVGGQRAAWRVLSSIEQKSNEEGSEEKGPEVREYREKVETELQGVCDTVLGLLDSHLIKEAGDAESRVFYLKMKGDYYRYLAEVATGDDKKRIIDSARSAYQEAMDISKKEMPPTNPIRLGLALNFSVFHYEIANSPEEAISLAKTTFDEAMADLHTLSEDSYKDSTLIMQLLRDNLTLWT
In words: Label-free microscale thermophoresis (MST) binding, 14-3-3σ. As for the experimental part:
as §1, §2
For nine of the sites, including sites from all sirtuin isoforms except Sirt4, endecameric phosphopeptides were chemically synthesized for in vitro analysis. […]
Background: Microscale thermophoresis detects binding through changes in fluorescence in a small temperature gradient.

The target in assay [3] is T3, 14-3-3 isoform gamma (Homo sapiens, UniProt P61981).
T3 construct: His6; made in house; host or cells: Escherichia coli BL21 Rosetta (DE3)
T3 sequence (P61981 1-247): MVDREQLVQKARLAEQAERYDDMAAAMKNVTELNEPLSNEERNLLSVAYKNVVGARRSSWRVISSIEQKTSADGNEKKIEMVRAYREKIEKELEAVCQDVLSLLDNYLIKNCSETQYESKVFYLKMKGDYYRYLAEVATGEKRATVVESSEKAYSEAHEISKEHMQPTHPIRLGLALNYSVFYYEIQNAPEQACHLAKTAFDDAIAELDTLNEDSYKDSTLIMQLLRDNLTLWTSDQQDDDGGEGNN
Nature of the assay: Label-free microscale thermophoresis (MST) binding, 14-3-3 gamma. Conditions: 0.6 µM 14-3-3 protein, 25 mM MES pH 6.5, 5 mM MgCl2, 5 mM CaCl2, 25°C, Kd from duplicate measurements, aggr. = no successful experiment. As for the experimental part: as §1
Figure 1 Classification and analysis of sirtuin PSSM results for potential 14-3-3 phosphoserine binding sites. Peptides with a gray background were not analyzed experimentally. Score is the overall PSSM score for the phosphorylation site; rank is the order within the 17 proposed sirtuin binding sites. Conserved residues in the 14-3-3 motifs are marked in green. Residues with restricted (proline) or very flexible (glycine) protein backbone or with a very large side chain (tryptophan) are marked in red. Amino acids with the same or similar hydrophobicity/size are shown in magenta. Kd values from duplicate measurements are colored green for Kd < 100 µM. Fields marked in red indicate no binding or no successful experiment. […]

Structures are written as SMILES. Read-outs that look alike come from different tables or passages of the source. Where a SMILES comes first, the peptide text is derived from it. [ ]: non-standard residue; d: D form. pS = N[C@@H](COP(=O)(O)O)C(=O)O

`CC(C)C[C@H](NC(=O)[C@@H](N)C(C)C)C(=O)N[C@@H](CO)C(=O)N[C@@H](CO)C(=O)N[C@@H](CO)C(=O)N[C@@H](COP(=O)(O)O)C(=O)N[C@@H](CS)C(=O)NCC(=O)N[C@@H](CO)C(=O)N[C@@H](CC(N)=O)C(=O)N[C@@H](CO)C(=O)O` [Sirt1^pS670] (H-VLSSS[pS]CGSNS-OH): the Kd in assay [1] is 93 µM; in assay [2] (Fig. 1, label-free MST, 0.6 µM 14-3-3 protein, 25 mM MES pH 6.5, 5 mM MgCl2, 5 mM CaCl2, 25°C, Kd from duplicate measurements, read-out: Affinity estimates by MicroScale Thermophoresis, 14-3-3 isoform sigma (Kd)) it was 5 µM; in assay [2] (Fig. 3a, average of two independent MST experiments, 25°C, MES pH 6.5, read-out: average Kd, MST titration of 14-3-3σ-ΔC), 1.7 ± 1.3 µM. For the same molecule, in assay [3], the “Affinity estimates by MicroScale Thermophoresis, 14-3-3 isoform gamma (Kd)” value is “aggr”.
